# US4885170A, “Antibiotic A80509” (Eli Lilly and Company, priority 1988, dated 1989)
# Positions of bridges follow the written chain, without caps; N, C: chain ends. Non-standard residues stand in square brackets, D forms with d. Residues, ends and D or L forms follow the SMILES beside them. *: point of attachment. Ileψ(thiazoline)Cys = CC[C@H](C)[C@H](N)C1=N[C@H](C(=O)*)CS1; dOrn = NCCC[C@@H](N)C(=O)O
# System: Culture A80509
# Assay: resistance of culture A80509 to antibiotics, sensitivity discs on agar
compound,measurement,setting,value
CN[C@H](CC(C)C)C(=O)N[C@H]1C(=O)N[C@@H](CC(N)=O)C(=O)N[C@H]2C(=O)N[C@H]3C(=O)N[C@H](C(=O)N[C@H](C(=O)O)c4cc(O)cc(O)c4-c4cc3ccc4O)[C@H](O)c3ccc(c(Cl)c3)Oc3cc2cc(c3O[C@@H]2O[C@H](CO)[C@@H](O)[C@H](O)[C@H]2O[C@H]2C[C@](C)(N)[C@H](O)[C@H](C)O2)Oc2ccc(cc2Cl)[C@H]1O [vancomycin],resistance/sensitivity of culture A80509,disc 30 μg,sensitive
gentamicin,resistance/sensitivity of culture A80509,disc 10 μg,sensitive
CN(C)C1C(=O)C(C(N)=O)=C(O)C2(O)C(=O)C3=C(O)c4c(O)cccc4C(C)(O)C3CC12 (stereo not drawn) [tetracycline],resistance/sensitivity of culture A80509,disc 30 μg,sensitive
neomycin,resistance/sensitivity of culture A80509,disc 30 μg,sensitive
CC(=O)OCC1=C(C(=O)O)N2C(=O)[C@@H](NC(=O)Cc3cccs3)[C@H]2SC1 [cephalothin],resistance/sensitivity of culture A80509,disc 30 μg,resistant
CO[C@H]1C[C@H](O[C@H]2[C@H](C)[C@@H](O[C@@H]3O[C@H](C)C[C@H](N(C)C)[C@H]3O)[C@@H](C)C[C@@]3(CO3)C(=O)[C@H](C)[C@@H](O)[C@@H](C)[C@@H](C)OC(=O)[C@@H]2C)O[C@@H](C)[C@@H]1O [oleandomycin],resistance/sensitivity of culture A80509,disc 15 μg,resistant
[H]/N=C(/N)N[C@H]1[C@H](O)[C@@H](O)[C@H](O[C@@H]2O[C@@H](C)[C@](O)(C=O)[C@H]2O[C@@H]2O[C@@H](CO)[C@H](O)[C@@H](O)[C@@H]2NC)[C@@H](N/C(N)=N\[H])[C@@H]1O [streptomycin],resistance/sensitivity of culture A80509,disc 10 μg,sensitive
CO[C@H]1/C=C/O[C@@]2(C)Oc3c(C)c(O)c4c(O)c(c(/C=N/N5CCN(C)CC5)c(O)c4c3C2=O)NC(=O)/C(C)=C\C=C\[C@H](C)[C@H](O)[C@@H](C)[C@@H](O)[C@@H](C)[C@H](OC(C)=O)[C@@H]1C [rifampin],resistance/sensitivity of culture A80509,disc 5 μg,sensitive
CCC[C@@H]1C[C@@H](C(=O)N[C@@H]([C@H]2O[C@H](SC)[C@H](O)[C@@H](O)[C@H]2O)[C@@H](C)O)N(C)C1 [lincomycin],resistance/sensitivity of culture A80509,disc 2 μg,resistant
CC1(C)S[C@@H]2[C@H](NC(=O)Cc3ccccc3)C(=O)N2[C@H]1C(=O)O [penicillin G],resistance/sensitivity of culture A80509,disc 10 units,resistant
NC[C@H]1O[C@H](O[C@H]2[C@H](O)[C@@H](O[C@H]3O[C@H](CO)[C@@H](O)[C@H](N)[C@H]3O)[C@H](N)C[C@@H]2N)[C@H](N)C[C@@H]1O [tobramycin],resistance/sensitivity of culture A80509,disc 10 μg,sensitive
CC[C@H](C)[C@H](N)C1=N[C@H](C(=O)N[C@@H](CC(C)C)C(=O)N[C@H](CCC(=O)O)C(=O)N[C@H](C(=O)N[C@H]2CCCCNC(=O)[C@H](CC(N)=O)NC(=O)[C@@H](CC(=O)O)NC(=O)[C@H](Cc3cnc[nH]3)NC(=O)[C@@H](Cc3ccccc3)NC(=O)[C@H]([C@@H](C)CC)NC(=O)[C@@H](CCCN)NC2=O)[C@@H](C)CC)CS1 [bacitracin] ({Ileψ(thiazoline)Cys}-L[dE]IK[dOrn]I[dF]H[dD]N; lactam 4-C),resistance/sensitivity of culture A80509,disc 10 units,sensitive
